Counter-ions that a name gives are not always drawn. Like-named read-outs stand apart in the source and are kept apart here.
Experiments:
[1] = tested on: histamine-induced bronchospasm; experiment: Bronchospasm by inhalation of a histamine solution; format: in vivo; conditions: Cavia porcellus, guinea-pig
Protocol: J--Bronchospasm by inhalation of a histamine solution
Guinea-pigs are placed in a closed chamber into which histamine is introduced as an aerosol, and only those which show very distinct signs of asphyxia within four minutes are selected.
The substance to be studied is administered to groups of guinea-pigs thirty minutes before a further period in the chamber in order to check the resistance to histamine. A guinea-pig is considered to be protected if it resists the histamine aerosol for ten minutes without showing signs of asphyxia.
A 50% effective dose is calculated from the results obtained.

[2] = tested on: pain syndrome caused by phenylbenzoquinone (PBQ); experiment: Peripheral analgesic activity (phenylbenzoquinone-induced abdominal twisting); format: in vivo; conditions: Mus musculus, ip
Protocol: F--Peripheral analgesic activity
A peritoneal pain is caused in mice by the intraperitoneal injection of phenylbenzoquinone (PBQ). The test assesses the decrease in the pain syndrome, characterized by an abdominal twisting movement, which is caused by injecting the test product thirty minutes before the administration of PBQ.
The 50% effective dose is calculated from the percentage decrease in the pain syndrome relative to the control animals.

[3] = tested on: contractions induced by histamine hydrochloride in isolated guinea-pig ileum; experiment: Study on an isolated organ (guinea-pig ileum), antagonism of histamine contractions; conditions: 35° C., Tyrode's solution
Protocol: I--Study on an isolated organ (guinea-pig ileum)
This test assesses antagonism towards the contractions induced by histamine hydrochloride in isolated guinea-pig ileum kept at 35° C. in Tyrode's solution.

[4] = tested on: lethal dose of histamine (histaminic shock); experiment: Antihistaminic activity (protection from a lethal dose of histamine, histaminic shock); format: in vivo; conditions: Cavia porcellus, po; guinea-pig, p.o. by position of the head; histamine 1 mg/kg i.v.
Protocol: K--Antihistaminic activity
This test assesses the dose which protects fifty per cent of guinea-pigs from a lethal dose of histamine.
The product is administered thirty minutes before the intravenous injection of histamine hydrochloride (1 mg/kg).
The 50% effective dose is calculated from the results obtained.

[5] = Determination of the 50% lethal dose (LD50) in mice; conditions: mouse, in vivo
Protocol: A. Determination of the 50% lethal dose (LD50) in mice
The derivatives studied were administered intraperitoneally and orally to groups made up of five male mice and five female mice, at a rate of 0.1 ml per ten grams of body weight.

anaphylactic shock = experiment: Test for assessing the dose which protects 50% of guinea-pigs from anaphylactic shock; format: in vivo; conditions: Cavia porcellus, po; guinea-pig, p.o., 45 min before horse serum i.v.; read-out: ED50 protecting 50% of guinea-pigs from anaphylactic shock
Protocol: L--Test for assessing the dose which protects 50% of guinea-pigs from anaphylactic shock
This test was carried out according to the following protocol:
Intraperitoneal administration to guinea-pigs of 2 ml of 20% horse serum in physiological solution for three days: D1, D3 and D5.
Trigger action: on D15, oral administration of the test product 45 minutes before the intravenous injection of 0.5 ml of pure horse serum.

rats = experiment: Determination of the minimal lethal dose (MLD) in rats; format: in vivo, rat; conditions: male rats, doses 75 and 150 mg/kg
Protocol: B. Determination of the minimal lethal dose (MLD) in rats
The derivatives studied were administered intraperitoneally to two groups made up of 5 male rats.
The following doses were used: 75 and 150 mg/kg.

[6] = tested on: sleep induced by pentobarbital; experiment: Interaction with pentobarbital; format: in vivo; conditions: Mus musculus, ip, read-out: Interaction with pentobarbital ED50
Excerpt: E--Interaction with pentobarbital
(§1) A 50% effective dose can be calculated from the results obtained.

[7] = tested on: exploration behavior of mice; experiment: Exploration behavior (automated hole-board); format: in vivo; conditions: Mus musculus, ip, comparative test
Excerpt: Thirty minutes after the intraperitoneal administration of the derivatives according to the invention, each mouse is placed on an automated hole-board for five minutes and the number of holes explored is noted every minute.
as §1

[8] = tested on: muscle-relaxing action in mice; experiment: Muscle-relaxing action (traction test); format: in vivo; conditions: Mus musculus, ip, comparative test
Excerpt: D--Muscle-relaxing action (traction test)
This test assesses the presence or absence of redressments in a mouse brought up to a horizontal wire with its front paws.
The number of mice which are unable to grip the wire with one of their back paws within five seconds is noted.
as §1

motor activity of mice = experiment: Study of the spontaneous motility (motor activity, photoelectric actimeter); format: in vivo, mouse; conditions: i.p., comparative test, the number is the dose of the effect
Protocol: A--Study of the spontaneous motility
The motor activity of mice was determined with the aid of a Boissier and Simon photoelectric actimeter.
The mice are placed in groups of five in a box closed with a lid, through which two perpendicular light rays pass; the mice cut off these rays when they move.
These movements are measured by a counter, which is read after thirty minutes and one hour.

[9] = ip, i.p., first value under bronchospasm, read-out: Bronchospasm (guinea-pig) (ED50), i.p.
[10] = po, second value under bronchospasm, p.o. by position, read-out: Bronchospasm (guinea-pig) (ED50), second value
[11] = read-out: Peripheral analgesic activity (mouse) (ED50)

## CCOC(=O)C=C1CCN(CCOC(c2ccccc2)c2ccccc2)CC1 [Example 2, ethyl 1-(benzhydryloxyethyl)piperidin-4-ylideneacetate]
[1]; [9]
  ED50: 0.65 mg/kg
[1]; [10]
  ED50: 0.21 mg/kg
[2]; [11]
  ED50: 1.9 mg/kg
[3]
  "In vitro" test (isolated ileum) (ED50): > 10 µg
[4]
  ED50: 0.25 mg/kg
[5]; ip, read-out: LD50 (i.p.)
  LD50: 300 mg/kg

## CCOC(=O)CC1CCN(CCOC(c2ccccc2)c2ccccc2)CC1 [Example 3, maleate of ethyl 1-(benzhydryloxyethyl)piperidino-4-acetate]
Anaphylactic shock
  ED50: 0.829 mg/kg
[1]; [9]
  ED50: 0.097 mg/kg
[1]; [10]
  ED50: 0.223 mg/kg
[2]; [11]
  ED50: 1.9 mg/kg
[3]
  "In vitro" test (isolated ileum) (ED50): 8.0 µg
rats
  MLD (i.p.): 75 mg/kg
[4]
  ED50: 0.061 mg/kg
[5]; ip, read-out: LD50 (i.p.)
  LD50: 160 mg/kg
[5]; po, read-out: LD50 (p.o.)
  LD50: 585 mg/kg

## CCOC(=O)C1CCN(CCOC(c2ccccc2)c2ccccc2)CC1 [Example 4, fumarate of 4-carbethoxy-1-benzhydryloxyethylpiperidine]
[1]; [9]
  ED50: 0.46 mg/kg
[1]; [10]
  ED50: 0.49 mg/kg
[3]
  "In vitro" test (isolated ileum) (ED50): 5 µg
[4]
  ED50: 0.334 mg/kg
[5]; ip, read-out: LD50 (i.p.)
  LD50: 456 mg/kg

## CC(C)(C)c1ccc(C(O)CCCN2CCC(C(O)(c3ccccc3)c3ccccc3)CC2)cc1 (stereo not shown) [Terfenadine]
[6]
  ED50: 25 mg/kg
[2]; mice, i.p., comparative test, read-out: Peripheral analgesic activity ED50
  ED50: 3.1 mg/kg
[7]
  ED50: 37 mg/kg
[8]
  ED50: 31 mg/kg
Motor activity of mice
  Motor activity, significant decrease at: 25 mg/kg

— patent publication US4983614A, “Benzhydryloxyethylpiperidine derivatives, process for their preparation and pharmaceutical compositions, in which they are present” (priority 1986, dated 1991)
